# Biological target: T1, human parathyroid cell Ca2+ receptor (hPCaR) (Homo sapiens, UniProt P41180)
# T1 construct: expressed in transfected cells
# T1 sequence (P41180 20-1078): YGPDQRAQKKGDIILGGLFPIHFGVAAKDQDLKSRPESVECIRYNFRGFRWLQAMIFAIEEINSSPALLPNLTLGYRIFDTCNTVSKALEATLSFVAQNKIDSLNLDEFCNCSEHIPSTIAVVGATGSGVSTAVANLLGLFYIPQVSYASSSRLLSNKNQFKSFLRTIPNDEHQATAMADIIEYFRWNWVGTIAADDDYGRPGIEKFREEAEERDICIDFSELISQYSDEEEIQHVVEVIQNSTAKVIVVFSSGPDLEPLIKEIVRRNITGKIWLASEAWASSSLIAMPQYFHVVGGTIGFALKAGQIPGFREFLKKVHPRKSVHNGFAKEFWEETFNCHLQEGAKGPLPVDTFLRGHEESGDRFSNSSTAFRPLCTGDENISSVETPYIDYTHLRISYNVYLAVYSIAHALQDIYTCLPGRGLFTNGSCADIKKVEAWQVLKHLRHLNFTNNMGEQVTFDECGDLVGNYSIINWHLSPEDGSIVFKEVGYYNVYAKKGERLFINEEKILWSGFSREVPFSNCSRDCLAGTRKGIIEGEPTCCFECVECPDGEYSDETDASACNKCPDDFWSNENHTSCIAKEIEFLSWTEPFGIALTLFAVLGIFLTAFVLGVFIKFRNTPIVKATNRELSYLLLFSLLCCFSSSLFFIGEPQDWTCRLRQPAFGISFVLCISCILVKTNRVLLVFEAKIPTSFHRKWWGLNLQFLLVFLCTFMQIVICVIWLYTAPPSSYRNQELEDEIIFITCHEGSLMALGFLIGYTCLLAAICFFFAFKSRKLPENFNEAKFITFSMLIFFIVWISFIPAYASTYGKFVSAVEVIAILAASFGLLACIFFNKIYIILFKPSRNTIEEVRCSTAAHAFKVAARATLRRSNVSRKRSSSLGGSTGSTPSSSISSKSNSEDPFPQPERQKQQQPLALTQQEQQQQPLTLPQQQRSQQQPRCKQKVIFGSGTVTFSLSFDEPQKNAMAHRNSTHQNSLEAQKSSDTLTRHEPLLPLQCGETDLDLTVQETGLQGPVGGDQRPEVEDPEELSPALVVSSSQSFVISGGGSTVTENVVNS
# Test: [Ca2+]i measurement (fluo-3 fluorescence) in HEK 293 4.0-7 cells stably transfected with hPCaR
# Format: cell-based
# Settings: HEK 293 4.0-7 cells expressing hPCaR; fluo-3, excitation 485 nm / emission 530 nm
# Description: The activities of the compounds of the present invention on calcium receptors were measured. In one embodiment, the measurement was performed in accordance with the method described in Example 4 of Nemeth et al., PCT/US95/13704 (International Publication No. WO96/12697) herein incorporated by reference.
# A 4.0-kb NotI-HindIII fragment of the human parathyroid cell Ca^2+ receptor (hPCaR) cDNA was subcloned into the mammalian expression vector pCEP4 (Invitrogen) containing the hygromycin-resistant gene as a selectable marker. This plasmid was transfected into HEK 293 cells by calcium phosphate precipitation. Transfected cells were grown in Dulbecco's modified Eagle's medium containing 10% fetal bovine serum and hygromycin (200 μg/mL). Hygromycin-resistant colonies were subcloned and assayed for hPCaR mRNA by solution hybridization using a ^32P-labeled RNA probe complementary to the (4.0 kb) hPCaR sequence (Garrett, et al., J. Biol. Chem. 270, 12919–12925 (1995)). Clone 7 was used to assess the effects of compounds on [Ca^2+]i. This stably transfected cell line is termed HEK 293 4.0–7. For measurements of [Ca^2+]i, the cells were recovered from tissue culture flasks by brief treatment with 0.02% EDTA and then washed and resuspended in PCB containing 1 mM CaCl2 and 0.1% Bovine Serum Albumin (“BSA”). The cells were loaded with fluo-3 by incubation for 30 min at 37° C., with parathyroid cell buffer (126 mM NaCl, 4 mM KCl, 1 mM MgSO4, 0.7 mM K2HPO4/KH2PO4, 20 mM HEPES.NaOH (pH 7.45)) containing 0.5% BSA in 1 mM CaCl2 and 2 μM fluo-3 acetoxymethyl ester. The cells were subsequently washed, each test compound was added to the cells and the fluorescence was recorded by using excitation and emission wavelengths of 485 and 530 nm, respectively.
row,SMILES,EC50 [µM]
1,CCn1c2ccccc2c2cc(CN[C@H](C)c3cccc4ccccc34)ccc21 [(R)-N-(1-(1-Naphthyl)ethyl)-N-(9-ethyl-3-carbazolylmethyl)amine],≤ 10
2,CCn1c2ccccc2c2cc(CN[C@H](C)c3cccc(OC)c3)ccc21 [(R)-N-(1-(3-Methoxyphenyl)ethyl)-N-(9-ethyl-3-carbazolylmethyl)amine],≤ 10
3,"CCn1nc2ccc(CN[C@H](C)c3cccc4ccccc34)cc2n1 [Example 4, (R)-N-(1-(1-Naphthyl)ethyl)-N-(2′-ethyl-benzotriazol-5-ylmethyl)amine]",≤ 10
4,"CCn1nc2ccc(CN[C@H](C)c3cccc(OC)c3)cc2n1 [Example 5, (R)-N-(1-(3-Methoxyphenyl)ethyl)-N-(2′-ethyl-benzotriazol-5-ylmethyl)amine]",≤ 10
5,"CCn1nc2ccc(CN[C@H](C)c3ccccc3)cc2n1 [Example 6, (R)-N-(1-(Phenyl)ethyl)-N-(2′-ethyl-benzotriazol-5-ylmethyl)amine]",≤ 10
6,"CCn1c2ccc(CN[C@H](C)c3cccc(OC)c3)cc2c2cc(OC)ccc21 [Example 8, (R)-N-(1-(3-Methoxyphenyl)ethyl)-N-(9-ethyl-6-methoxy-3-carbazolylmethyl)amine]",≤ 10
7,CCn1c2c(c3cc(CN[C@H](C)c4ccccc4)ccc31)CCC2 [Example 10],≤ 10
8,"C[C@@H](NCc1ccc2c(c1)ncn2C)c1cccc2ccccc12 [Example 11, (R)-N-(1-(1-Naphthyl)ethyl)-N-((1-methylbenzimidazol-5-yl)methyl)amine]",≤ 10
9,"C[C@@H](NCc1ccc2c(c1)ncn2C)c1ccccc1 [Example 12, (R)-N-(1-(Phenyl)ethyl)-N-((1-methylbenzimidazol-5-yl)methyl)amine]",≤ 10
10,CCn1c2c(c3cc(CN[C@H](C)c4ccccc4)ccc31)CN(C)CC2 [Example 13],≤ 10
11,CCn1c2c(c3cc(CN[C@H](C)c4cccc(OC)c4)ccc31)CN(C)CC2 [Example 14],≤ 10
12,"CCn1c2ccccc2c2cc(CN[C@H](C)c3ccccc3)ccc21 [Example 17, (R)-N-(1-(Phenyl)ethyl)-N-(9-ethyl-3-carbazolylmethyl)amine]",≤ 10
13,"CCn1ccc2cc(CN[C@H](C)c3cccc4ccccc34)ccc21 [Example 18, (R)-N-(1-(1-Naphthyl)ethyl)-N-((1-ethylindole-5-yl)methyl)amine]",≤ 10
14,CCn1c2c(c3cc(CN[C@H](C)c4ccccc4)ccc31)COCC2 [Example 19],≤ 10
15,CCn1c2c(c3cc(CN[C@H](C)c4cccc(OC)c4)ccc31)COCC2 [Example 20],≤ 10
16,CCn1c2c(c3cc(CN[C@H](C)c4cccc5ccccc45)ccc31)COCC2 [Example 21],≤ 10
17,C[C@@H](NCc1ccc2c(c1)c1ccccc1n2CCCN(C)C)c1cccc2ccccc12 [Example 24],≤ 10
18,"C[C@@H](NCc1ccc2[nH]ccc2c1)c1cccc2ccccc12 [Example 25, (1R)-N-(1H-indol-5-ylmethyl)-1-(1-naphthalenyl)ethanamine]",≤ 10
19,"CCn1cc(-c2ccccc2)c2cc(CN[C@H](C)c3ccccc3)ccc21 [Example 28, (1R)-N-((1-ethyl-3-phenyl-1H-indol-5-yl)methyl)-1-phenylethanamine]",≤ 10
20,"CCn1cc(-c2ccc(OC(F)(F)F)cc2)c2cc(CN[C@H](C)c3ccccc3)ccc21 [Example 29, (1R)-N-((1-ethyl-3-(4-((trifluoromethyl)oxy)phenyl)-1H-indol-5-yl)methyl)-1-phenylethanamine]",≤ 10
